Reference: article PMC9032693, “Biological Evaluation of New Thienopyridinium and Thienopyrimidinium Derivatives as Human Choline Kinase Inhibitors” (Pharmaceutics, 2022)

What was measured:
HepG2 cells = experiment: Choline uptake assay ([methyl-14C]choline); assay type: cell-based, human; conditions: HepG2, 24 h
Protocol: Choline uptake was assessed as previously reported. Briefly, HepG2 cells (200,000 cells/well) were incubated for 24 h at 37 °C with different concentrations of CKα1 inhibitors. Then, cells were exposed to [methyl-^14C]choline ([…], 31 Ci/mol) for 5 min at 37 °C. The reaction was stopped by two washes with ice-cold PBS containing 580 μM choline. The cells were solubilized in NaOH 0.1 N and the total amount of radiolabel taken up by the cells was measured by liquid scintillation using a Beckman 6000-TA counter (Madrid, Spain).

A549 [1] = experiment: Cell cycle analysis by flow cytometry; assay type: cell-based, human; conditions: A549, 1.0 µM, 48 and 72 h
Protocol: (§1) Three different cell lines (MDA-MB-231, A549, and HeLa) were used to evaluate the effect of compound Ff-35 on the cell cycle. Briefly, cells were treated with the test compound for 48 and 72 h. After this incubation period the cells were trypsinized, centrifuged, and fixed by adding cold ethanol (70% v/v). Cell cycles are then acquired through a cytofluorimeter (Beckman Coulter Cytomics FC500, Milano, Italy) and subsequently analyzed using MultiCycle software (Phoenix Flow Systems, San Diego, CA, USA).

MDA-MB-231 [2] = experiment: Cell cycle analysis by flow cytometry; assay type: cell-based, human; conditions: MDA-MB-231, 1.0 µM, 48 and 72 h
Protocol: as §1

HeLa [3] = experiment: Cell cycle analysis by flow cytometry; assay type: cell-based, human; conditions: 1.0 µM, 48 and 72 h
Protocol: as §1

A549 [4] = experiment: Apoptosis by annexin-V-FITC/PI flow cytometry; assay type: cell-based, human; conditions: A549, 1 and 5 µM, 72 h
Protocol: (§2) MDA-MB-231, A549, and HeLa cells were treated with compound Ff-35 for 72 h and then stained using a commercial kit (Annexin-V-Fluos, Roche Diagnostics, Milano, Italy) containing Annexin-V conjugated with fluorescein isothiocyanate and Propidium iodide (PI). All the procedures were executed according to manufacturer’s instructions. Apoptotic cells were then analyzed through a cytofluorimeter (Beckman Coulter Cytomics FC500).

MDA-MB-231 [5] = experiment: Apoptosis by annexin-V-FITC/PI flow cytometry; assay type: cell-based, human; conditions: MDA-MB-231, 1 and 5 µM, 72 h
Protocol: as §2

HeLa [6] = experiment: Apoptosis by annexin-V-FITC/PI flow cytometry; assay type: cell-based, human; conditions: 1 and 5 µM, 72 h
Protocol: as §2

CKα1 = molecular target: T1, CKα1 (Homo sapiens, UniProt P35790); experiment: Choline kinase assay ([methyl-14C]choline into PCho, purified enzyme); assay type: biochemical; conditions: for % Inhibition at 10 µM: purified CKα1, inhibitor 10 µM; for % Inhibition at 10 µM / % Inhibition at 30 µM: end-point assay; for % Inhibition at 30 µM: purified CKα1, inhibitor 30 µM
T1 construct: an N-terminally His-tagged truncated form of CKα1 (Δ75–457) was cloned into a pET-28a vector; His tag (N); made in house; host or cells: E. coli BL21 (DE3) Star
T1 sequence (P35790 75-457): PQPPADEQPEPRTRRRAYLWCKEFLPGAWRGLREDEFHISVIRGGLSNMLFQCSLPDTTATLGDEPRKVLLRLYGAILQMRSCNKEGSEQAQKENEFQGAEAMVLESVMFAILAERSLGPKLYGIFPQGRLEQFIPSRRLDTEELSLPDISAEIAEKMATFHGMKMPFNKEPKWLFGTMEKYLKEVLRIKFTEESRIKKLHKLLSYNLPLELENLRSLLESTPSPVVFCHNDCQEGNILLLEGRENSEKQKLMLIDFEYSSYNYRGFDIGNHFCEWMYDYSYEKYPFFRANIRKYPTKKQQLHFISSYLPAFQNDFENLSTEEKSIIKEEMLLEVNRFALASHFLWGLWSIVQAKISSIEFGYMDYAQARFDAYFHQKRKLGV
Protocol: The protein was produced and purified as previously described. Briefly, an N-terminally His-tagged truncated form of CKα1 (Δ75–457) was cloned into a pET-28a vector and expressed at 37 °C in E. coli BL21 (DE3) Star cells using 1 mM isopropyl β-D-1-thiogalactopyranoside (IPTG). After centrifugation, the cellular pellet was resuspended in 50 mM Tris-HCl pH 7.5, 500 mM NaCl, 0.2 mM phenylmethylsulphonyl fluoride (PMSF), DNase, and 0.5 mM β-mercaptoethanol, sonicated and subjected to a two-step purification procedure to isolate the target enzyme. […] Protein elution was completed using buffer A + 400 mM imidazole. A second size-exclusion chromatography step was then carried out to achieve complete purity. To this end, we used a HiPrep 26/60 Sephacryl 100 HR column (GE Healthcare, Little Chalfont, Buckinghamshire, UK) and a 20 mM Tris/HCl pH 7.5, 150 mM NaCl running buffer.
To study the effect of the compounds on CKα, an in vitro enzymatic assay was performed using the purified enzyme as previously reported in [19, 28, 29]. Briefly, the incorporation of ^14C from [methyl-^14C]choline into PCho in either the absence (control) or presence of different inhibitors at varying concentrations was used to determine the CK activity. The reaction mixture included 20 ng of purified CKα1, 10 mM ATP, 10 mM MgCl2, 100 mM Tris-HCl pH 8.5, and increasing concentrations of compounds. The mixture was preincubated at 37 °C for 5 min. Then, [methyl-^14C]choline chloride (1 mM, 4500 dpm/nmol) was added and the reaction was left to proceed for 10 min at 37 °C. The assay was stopped by immersing the reaction tubes in boiling water. PCho was separated by Thin Layer Chromatography using methanol/0.6% NaCl/28% NH4OH in water (50:50:5, v/v/v) as solvent. The radioactivity associated into PCho was determined in a Beckman 6000-TA (Madrid, Spain) liquid scintillation counter. The 50% inhibitory concentrations (IC50 values) were determined from the % enzyme activity at different concentrations of synthetic inhibitors relative to the control by using a sigmoidal dose–response curve (ED50plus v1.0 software).

A549 [7] = experiment: Antiproliferative activity, resazurin assay, 72 h; assay type: cell-based, human
Protocol: (§3) Human cervix carcinoma (HeLa), Non-small lung adenocarcinoma (A549), Colon adenocarcinoma (HT29), and human triple negative breast cancer (MDA-MB-231) were cultured in Dulbecco’s modified Eagle’s media (DMEM). B-acute lymphoblastic leukemia (RS4;11 and SEM), T-acute lymphoblastic leukemia (Jurkat), and human promyelocytic cells (HL-60), were cultured in RPMI-1640 medium. Both media were purchased from Gibco, Life Technologies (Milan, Italy) and supplemented with 10% Fetal Bovine Serum (FBS, Invitrogen, Milan, Italy,). Every six months, each cell line was checked for the presence of mycoplasma by RT-PCR.
(§4) Stock solutions (10 mM) of the different compounds were made in DMSO. Cancer cells were seeded in tissue-treated, flat bottom, 384-well plates (Corning) according to their optimal density, (A549 1000 cells/wells; MDA-MB-231, HeLa and HT-29 2000 cells/well and finally Jurkat, HL-60 SEM and RS4;11 20.000 cells/well) in 27 µL of complete medium per well.
(§5) The day after cell seeding and immediately before cell treatment, 10 mM stock solutions of the compounds were pre-diluted to a […] concentration in 250 µL of Hank’s in a 96-well plate (Corning). Subsequent 1:5 dilutions were carried out using a microlab STAR 96-CORE liquid handling system (Hamilton), a robotized liquid handling tool that was employed for all steps, from cell seeding to drug dilution and cell treatment to ensure high reproducibility while reducing time for large screening execution. This pre-dilution step was necessary to avoid DMSO-related cytotoxicity and compound precipitation in the cell culture medium. In every case, DMSO concentration never exceeded 0.1%.
(§6) Positive (Bortezomib 1 µM) and negative (0.1% DMSO) controls were included in all the screened plates to allow for monitoring the Z’ factor throughout the entire screening. Cells were treated with 3 µL of the previously made dilutions; thus, generating a 6-point 5-fold dose–response curve starting from 10 µM. Within a plate, each drug concentration was tested in duplicate in two independent experiments for each compound.
(§7) Treated cells were then placed inside the CO2 incubator for 72 h at 37 °C. Cell viability was assessed by resazurin assay, in which 3 µL of resazurin per well were added using the previously described automated platform. Plates were placed in the incubator at 37 °C for 2 h, and then the fluorescence of each plate was read using a Spark 10 M multimode microplate reader (Tecan Group Ltd., Mannedorf, Switzerland) with 535 nm excitation wavelength and 600 nm emission wavelength.

HL-60 = experiment: Antiproliferative activity, resazurin assay, 72 h; assay type: cell-based, human
Protocol: as §3, §4, §5, §6, §7

SEM cells = experiment: Antiproliferative activity, resazurin assay, 72 h; assay type: cell-based, human
Protocol: as §3, §4, §5, §6, §7

MDA-MB-231 [8] = experiment: Antiproliferative activity, resazurin assay, 72 h; assay type: cell-based, human
Protocol: as §3, §4, §5, §6, §7

Jurkat = experiment: Antiproliferative activity, resazurin assay, 72 h; assay type: cell-based, human
Protocol: as §3, §4, §5, §6, §7

HT29 = experiment: Antiproliferative activity, resazurin assay, 72 h; assay type: cell-based, human
Protocol: as §3, §4, §5, §6, §7

HeLa [9] = experiment: Antiproliferative activity, resazurin assay, 72 h; assay type: cell-based, human
Protocol: as §3, §4, §5, §6, §7

RS 4;11 = experiment: Antiproliferative activity, resazurin assay, 72 h; assay type: cell-based, human
Protocol: as §3, §4, §5, §6, §7

[10] = Solubility as observed in the enzyme inhibition assays; assay type: physicochemical; design: key to solubility (footnote b): -: The compound was not soluble; conditions: for solubility (footnote b): CK inhibition assay at 10 and 30 µM; for solubility (in words): IC50 could not be determined

| SMILES | % Inhibition Choline Uptake at 0.5 μM (HepG2 cells) | % Inhibition Choline Uptake at 2 μM (HepG2 cells) | % Inhibition at 10 µM (CKα1) | % Inhibition at 30 µM (CKα1) | GI50 (A549 [7]) | GI50 (HL-60) | GI50 (SEM cells) | GI50 (MDA-MB-231 [8]) | GI50 (Jurkat) | GI50 (HT29) | GI50 (HeLa [9]) | GI50 (RS 4;11) | solubility (footnote b) [10] | solubility (in words) [10] | further results |
| --- | --- | --- | --- | --- | --- | --- | --- | --- | --- | --- | --- | --- | --- | --- | --- |
| [Br-].[Br-].c1cc2c(N3CCCCCC3)nc[n+](Cc3ccc(CCCCc4ccc(C[n+]5cnc(N6CCCCCC6)c6ccsc65)cc4)cc3)c2s1 [Ff-35] | 84.99 ± 1.3% | 96.62 ± 0.316% | 90.55% | 97.80% | – | – | – | – | – | – | – | – | – | – | % Inhibition Choline Uptake at 0.1 μM (HepG2 cells; 0.1 μM): 35.64 ± 0.7%; effect on cell cycle (A549 [1]): notable increase in the G1 phase accompanied by a reduction in the S phase; effect on cell cycle (MDA-MB-231 [2]): notable increase in the G1 phase accompanied by a reduction in the S phase; effect on cell cycle (HeLa [3]): notable increase in the G1 phase accompanied by a reduction in the S phase; apoptotic cells (A549 [4]): significant increase in apoptotic cells in a concentration-dependent manner; apoptotic cells (MDA-MB-231 [5]): significant increase in apoptotic cells in a concentration-dependent manner; apoptotic cells (HeLa [6]): significant increase in apoptotic cells in a concentration-dependent manner |
| [Br-].[Br-].c1cc2c(N3CCCCCC3)nc[n+](Cc3ccc(OCCOc4ccc(C[n+]5cnc(N6CCCCCC6)c6ccsc65)cc4)cc3)c2s1 [Ff-36] | 71.78 ± 0.1% | 95.32 ± 0.29% | 84.47% | 96.07% | 1430 ± 100 nM | 440 ± 20 nM | 2540 ± 200 nM | 2260 ± 300 nM | 6.2 ± 0.9 µM | > 10000 nM | 3020 ± 400 nM | 2260 ± 300 nM | – | – | IC50 (CKα1; concentration required to inhibit CKα1 enzyme by 50%): 350 ± 50 nM |
| [Br-].[Br-].c1cc2c(s1)c(N1CCCCCC1)nc[n+]2Cc1ccc(CCc2ccc(C[n+]3cnc(N4CCCCCC4)c4sccc43)cc2)cc1 [Fa-23] | – | – | – | – | 600 ± 60 nM | 510 ± 50 nM | 2170 ± 20 nM | 1130 ± 200 nM | 6.15 ± 0.6 µM | 1560 ± 200 nM | 1170 ± 100 nM | 2080 ± 30 nM | - ^b | insolubility | – |
| [Br-].[Br-].c1cc2c(N3CCCCCC3)nc[n+](Cc3ccc(CCc4ccc(C[n+]5cnc(N6CCCCCC6)c6ccsc65)cc4)cc3)c2s1 [Fg-19] | – | – | – | – | 310 ± 40 nM | 150 ± 10 nM | 2590 ± 30 nM | 500 ± 20 nM | 4.72 ± 0.6 µM | 1420 ± 100 nM | 780 ± 20 nM | 1510 ± 200 nM | - ^b | insolubility | – |
